The term pEC50 denotes −log10 of the EC50, conventionally taken in molar units. By Emax is commonly meant the maximal effect, on the per cent scale that the assay sets.

The target in test [1] is T1, human mAChR M1 (Homo sapiens, UniProt P11229).
T1 construct: host or cells: CHO-K1 cells (ATCC), stably transfected using Lipofectamine2000
T1 sequence (P11229 1-460): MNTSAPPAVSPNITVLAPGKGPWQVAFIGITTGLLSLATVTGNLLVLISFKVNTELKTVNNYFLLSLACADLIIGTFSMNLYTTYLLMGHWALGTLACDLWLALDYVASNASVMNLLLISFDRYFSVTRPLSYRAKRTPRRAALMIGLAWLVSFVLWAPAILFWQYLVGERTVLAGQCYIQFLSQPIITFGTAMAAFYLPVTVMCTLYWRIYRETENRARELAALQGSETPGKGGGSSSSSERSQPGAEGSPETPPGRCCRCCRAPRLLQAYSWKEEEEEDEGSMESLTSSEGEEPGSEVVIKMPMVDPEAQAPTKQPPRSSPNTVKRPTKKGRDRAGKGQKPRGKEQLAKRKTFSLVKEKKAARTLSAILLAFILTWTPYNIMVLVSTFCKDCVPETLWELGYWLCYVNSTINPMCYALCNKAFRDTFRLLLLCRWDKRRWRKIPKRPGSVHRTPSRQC
Put plainly: mAChR M1 cell-based functional assay (calcium mobilization), PAM activity: increase in the EC20 acetylcholine response. Particulars: CHO-K1 cells expressing hM1; potentiation of EC20 acetylcholine response. A digest of the protocol: (§1)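 Fluorescence ratio calcium read-out (Fluo-4 AM, FDSS 6000) in human M1-expressing CHO-K1 cells. Agonist activity taken as concentration-dependent rise after compound addition; potentiation as enhancement of a subsequent EC20 acetylcholine challenge. Curves from 11-point threefold dilutions fitted by four-parameter logistic; Emax expressed versus acetylcholine maximum.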
(A change in cytosolic calcium serves as a functional read-out for many receptors and channels.)

For test [2], the target named is T1, human mAChR M1. Put plainly: mAChR M1 cell-based functional assay (calcium mobilization), agonist activity upon compound addition. Particulars: CHO-K1 cells expressing hM1; for pEC50: compound alone, before acetylcholine addition; for Emax: relative to the maximum for acetylcholine. A digest of the protocol: as §1

pEC50: −log10 of the molar value. Bounds are passed on as bounds.

In the case of `Cc1cncc(-c2cc(F)c(Cn3cc(C(=O)N[C@H]4CCCC[C@@H]4O)c4ncccc4c3=O)c(F)c2)c1` [Compound A43, 6-(2,6-difluoro-4-(5-methylpyridin-3-yl)benzyl)-N-((1S,2S)-2-hydroxycyclohexyl)-5-oxo-5,6-dihydro-1,6-naphthyridine-8-carboxamide], at human mAChR M1 [1], the negative logarithm of the EC50 (pEC50) is 6.19 and the maximum response (Emax) came out at 51%. At human mAChR M1 [2], the negative logarithm of the EC50 (pEC50) is less than 5.00 and the Emax was less than 5%.
For `Cc1cncc(-c2cc(F)c(Cn3cc(C(=O)N[C@H]4CCC[C@@H]4O)c4ncccc4c3=O)c(F)c2)c1` [Compound A44, 6-(2,6-difluoro-4-(5-methylpyridin-3-yl)benzyl)-N-((1S,2S)-2-hydroxycyclopentyl)-5-oxo-5,6-dihydro-1,6-naphthyridine-8-carboxamide] the same measures were no more than 5.00, 26%, less than 5.00 and less than 5%.
For `Cn1nccc1-c1ccc(Cn2cc(C(=O)N[C@H]3CCOC[C@@H]3O)c3ncccc3c2=O)c(F)c1` [Compound A45, 6-(2-fluoro-4-(1-methyl-1H-pyrazol-5-yl)benzyl)-N-((3R,4S)-3-hydroxytetrahydro-2H-pyran-4-yl)-5-oxo-5,6-dihydro-1,6-naphthyridine-8-carboxamide] the same measures were 5.36, 70%, less than 5.00 and less than 5%.
With `Cn1nccc1-c1ccc(Cn2cc(C(=O)N[C@H]3CCCC[C@@H]3O)c3ncccc3c2=O)c(F)c1` [Compound A46, 6-(2-fluoro-4-(1-methyl-1H-pyrazol-5-yl)benzyl)-N-((1S,2S)-2-hydroxycyclohexyl)-5-oxo-5,6-dihydro-1,6-naphthyridine-8-carboxamide], on human mAChR M1 [1], the negative logarithm of the EC50 (pEC50) was 5.95 and the Emax was 41%. In addition, at human mAChR M1 [2], the pEC50 is less than 5.00 and the Emax is less than 5%.
The like results for `Cn1nccc1-c1cc(F)c(Cn2cc(C(=O)N[C@H]3CCOC[C@@H]3O)c3ncccc3c2=O)c(F)c1` [Compound A47, 6-(2,6-difluoro-4-(1-methyl-1H-pyrazol-5-yl)benzyl)-N-((3R,4S)-3-hydroxytetrahydro-2H-pyran-4-yl)-5-oxo-5,6-dihydro-1,6-naphthyridine-8-carboxamide] were, in that order, 5.96, 57%, less than 5.00 and less than 5%.
The like results for `Cn1nccc1-c1cc(F)c(Cn2cc(C(=O)N[C@H]3CCCC[C@@H]3O)c3ncccc3c2=O)c(F)c1` [Compound A48, 6-(2,6-difluoro-4-(1-methyl-1H-pyrazol-5-yl)benzyl)-N-((1S,2S)-2-hydroxycyclohexyl)-5-oxo-5,6-dihydro-1,6-naphthyridine-8-carboxamide] were, in that order, 6.18, 38%, less than 5.00 and less than 5%.
In the case of `O=C(N[C@H]1CCOC[C@@H]1O)c1cn(Cc2c(F)cc(-c3cncs3)cc2F)c(=O)c2cccnc12` [Compound A49, 6-(2,6-Difluoro-4-(thiazol-5-yl)benzyl)-N-((3R,4S)-3-hydroxytetrahydro-2H-pyran-4-yl)-5-oxo-5,6-dihydro-1,6-naphthyridine-8-carboxamide], the pEC50 on human mAChR M1 [1] was 6.01; at human mAChR M1 [2] it was less than 5.00. Further, the values for the Emax at human mAChR M1 [1] and on human mAChR M1 [2] were 65% and less than 5%, respectively.
The like results for `O=C(N[C@H]1CCOC[C@@H]1O)c1cn(Cc2c(F)cc(-c3ccns3)cc2F)c(=O)c2cccnc12` [Compound A50, 6-(2,6-difluoro-4-(isothiazol-5-yl)benzyl)-N-((3R,4S)-3-hydroxytetrahydro-2H-pyran-4-yl)-5-oxo-5,6-dihydro-1,6-naphthyridine-8-carboxamide] were, in that order, 5.75, less than 5.00, 69% and less than 5%.
The like results for `Cc1ncc(-c2cc(F)c(Cn3cc(C(=O)N[C@H]4CCOC[C@@H]4O)c4ncccc4c3=O)c(F)c2)s1` [Compound A51, 6-(2,6-difluoro-4-(2-methylthiazol-5-yl)benzyl)-N-((3R,4S)-3-hydroxytetrahydro-2H-pyran-4-yl)-5-oxo-5,6-dihydro-1,6-naphthyridine-8-carboxamide] were, in that order, 5.77, less than 5.00, 75% and less than 5%.
For `Cn1cc2c(-c3cc(F)c(Cn4cc(C(=O)N[C@H]5CCCC[C@@H]5O)c5nccnc5c4=O)c(F)c3)cccc2n1` [Compound A52, 6-(2,6-Difluoro-4-(2-methyl-2H-indazol-4-yl)benzyl)-N-((1S,2S)-2-hydroxycyclohexyl)-5-oxo-5,6-dihydropyrido[3,4-b]pyrazine-8-carboxamide] the same measures were 6.40, 5.36, 64% and 50%.
Take `O=C(N[C@H]1CCCC[C@@H]1O)c1cn(Cc2ccc(-n3cccn3)cc2)c(=O)c2nccnc12` [Compound A53, 6-(4-(1H-pyrazol-1-yl)benzyl)-N-((1S,2S)-2-hydroxycyclohexyl)-5-oxo-5,6-dihydropyrido[3,4-b]pyrazine-8-carboxamide]: on human mAChR M1 [1], the pEC50 was 5.02 and the Emax was 48%. Moreover, on human mAChR M1 [2], the pEC50 is less than 5.00 and the Emax was less than 5%.
For `Cn1cc(-c2ccc(Cn3cc(C(=O)N[C@H]4CCCC[C@@H]4O)c4nccnc4c3=O)c(F)c2)cn1` [Compound A54, 6-(2-fluoro-4-(1-methyl-1H-pyrazol-4-yl)benzyl)-N-((1S,2S)-2-hydroxycyclohexyl)-5-oxo-5,6-dihydropyrido[3,4-b]pyrazine-8-carboxamide] the same measures were 5.63, 62%, less than 5.00 and 26%.
On to `Cn1ccc(-c2ccc(Cn3cc(C(=O)N[C@H]4CCCC[C@@H]4O)c4nccnc4c3=O)c(F)c2)n1` [Compound A55, 6-(2-fluoro-4-(1-methyl-1H-pyrazol-3-yl)benzyl)-N-((1S,2S)-2-hydroxycyclohexyl)-5-oxo-5,6-dihydropyrido[3,4-b]pyrazine-8-carboxamide], for which, at human mAChR M1 [1], the pEC50 was 5.10 and the Emax worked out at 67%. Also, on human mAChR M1 [2], the negative logarithm of the EC50 (pEC50) was less than 5.00 and the Emax was 12%.
The like results for `O=C(N[C@H]1CCOC[C@@H]1O)c1cn(Cc2ccc(-n3cccn3)cc2)c(=O)c2nccnc12` [Compound A56, 6-(4-(1H-pyrazol-1-yl)benzyl)-N-((3R,4S)-3-hydroxytetrahydro-2H-pyran-4-yl)-5-oxo-5,6-dihydropyrido[3,4-b]pyrazine-8-carboxamide] were, in that order, no more than 5.00, 61%, less than 5.00 and less than 5%.
For `O=C(N[C@H]1CCOC[C@@H]1O)c1cn(Cc2ccc(-c3cscn3)cc2)c(=O)c2cccnc12` [Compound A57, N-((3R,4S)-3-hydroxytetrahydro-2H-pyran-4-yl)-5-oxo-6-(4-(thiazol-4-yl)benzyl)-5,6-dihydro-1,6-naphthyridine-8-carboxamide], the pEC50 was 5.94 at human mAChR M1 [1] and less than 5.00 at human mAChR M1 [2]. In addition, the figures for the maximal effect (Emax) at human mAChR M1 [1] and on human mAChR M1 [2] were 68% and 25%, respectively.
The like results for `Cn1cc(-c2ccc(Cn3cc(C(=O)N[C@H]4CCOC[C@@H]4O)c4ncccc4c3=O)cc2)cn1` [Compound A58, N-((3R,4S)-3-hydroxytetrahydro-2H-pyran-4-yl)-6-(4-(1-methyl-1H-pyrazol-4-yl)benzyl)-5-oxo-5,6-dihydro-1,6-naphthyridine-8-carboxamide] were, in that order, 6.43, 5.28, 68% and 40%.
For `O=C(N[C@H]1CCCC[C@@H]1O)c1cn(Cc2ccc(-c3cscn3)cc2)c(=O)c2cccnc12` [Compound A59, N-((1S,2S)-2-hydroxycyclohexyl)-5-oxo-6-(4-(thiazol-4-yl)benzyl)-5,6-dihydro-1,6-naphthyridine-8-carboxamide], the pEC50 on human mAChR M1 [1] was 6.38; on human mAChR M1 [2], less than 5.00. The Emax is 45% on human mAChR M1 [1] and less than 5% at human mAChR M1 [2].
The like results for `O=C(N[C@H]1CCCCC[C@@H]1O)c1cn(Cc2ccc(-c3cscn3)cc2)c(=O)c2cccnc12` [Compound A60, N-((1S,2S)-2-hydroxycycloheptyl)-5-oxo-6-(4-(thiazol-4-yl)benzyl)-5,6-dihydro-1,6-naphthyridine-8-carboxamide] were, in that order, 6.21, less than 5.00, 34% and less than 5%.
`O=C(N[C@H]1CCC[C@@H]1O)c1cn(Cc2ccc(-n3cccn3)cc2)c(=O)c2nccnc12` [Compound A61, 6-(4-(1H-pyrazol-1-yl)benzyl)-N-((1S,2S)-2-hydroxycyclopentyl)-5-oxo-5,6-dihydropyrido[3,4-b]pyrazine-8-carboxamide]: on human mAChR M1 [1], the pEC50 was no more than 5.00 and the Emax was 33%. At human mAChR M1 [2], the pEC50 was less than 5.00 and the Emax is less than 5%.

Source of the values: patent publication US20220041606A1, “POSITIVE ALLOSTERIC MODULATORS OF THE MUSCARINIC ACETYLCHOLINE RECEPTOR M1” (Vanderbilt University, priority 2020, published 2022).
